Test results: the NIST ThermoML archive (doi:10.1021/acs.jced.5b00662)
“And” between values parts separate entries of the source, which are not always exact repeats. Equal entries are not always repeated.

Tests used:
[1] = 101.33 kPa, Liquid; for speed of sound: Sing-around technique in a fixed-path interferometer; for mass density: Vibrating tube method; for viscosity: Concentric cylinders viscometry
[2] = refractive index (Na D-line) (dimensionless); conditions: 101.33 kPa, Liquid, Standard Abbe refractometry

COCCOCCOCCOC [2,5,8,11-tetraoxadodecane]
Conditions | mass density, [1] | refractive index, [2] | speed of sound, [1] [m/s] | viscosity, [1] [mPa·s]
283.15 K | 994.1 kg/m3 | 1.42712 | 1401.4 | –
288.15 K | 990.8 kg/m3 and 989.4 kg/m3 | 1.42498 | 1381.4 | 2.414
293.15 K | 986 kg/m3 and 984.6 kg/m3 | 1.42284 | 1361.6 | 2.162
298.15 K | 979.9 kg/m3 and 981.5 kg/m3 | 1.42071 | 1342.1 | 1.956
303.15 K | 975.1 kg/m3 and 976.7 kg/m3 | 1.41862 | 1322.8 | 1.777
308.15 K | 970.4 kg/m3 and 971.9 kg/m3 | – | 1303.6 | 1.623
313.15 K | 965.6 kg/m3 and 967.2 kg/m3 | 1.41434 | 1284.4 | 1.439
318.15 K | 962.4 kg/m3 | – | – | 1.373
323.15 K | 956.1 kg/m3 and 957.7 kg/m3 | 1.41005 | 1246.9 | 1.27
328.15 K | 952.9 kg/m3 | – | – | 1.179
333.15 K | 946.5 kg/m3 and 948.1 kg/m3 | 1.40579 | 1209.9 | 1.064
338.15 K | 943.3 kg/m3 | – | – | 1.026
343.15 K | 938.6 kg/m3 and 936.9 kg/m3 | 1.40153 | 1174 | 0.962
348.15 K | 933.8 kg/m3 | – | – | 0.903
353.15 K | 929 kg/m3 | 1.39723 | – | 0.814
358.15 K | 924.2 kg/m3 | – | – | 0.801
363.15 K | 919.4 kg/m3 | – | – | 0.756
368.15 K | 914.5 kg/m3 | – | – | 0.715
373.15 K | 909.7 kg/m3 | – | – | 0.65

COCCOCCOC [2,5,8-trioxanonane]
Conditions | mass density, [1] | refractive index, [2] | speed of sound, [1] [m/s] | viscosity, [1] [mPa·s]
283.15 K | 953.7 kg/m3 | 1.41249 | 1340.7 | –
288.15 K | 950.2 kg/m3 and 948.7 kg/m3 | 1.4102 | 1320 | 1.161
293.15 K | 945.2 kg/m3 and 943.8 kg/m3 | 1.40802 | 1299.9 | 1.081
298.15 K | 938.8 kg/m3 and 940.2 kg/m3 | 1.40579 | 1280 | 1.011
303.15 K | 933.8 kg/m3 and 935.2 kg/m3 | 1.40359 | 1260.1 | 0.942
308.15 K | 928.8 kg/m3 and 930.2 kg/m3 | – | 1240.3 | 0.879
313.15 K | 923.8 kg/m3 and 925.2 kg/m3 | 1.39921 | 1220.6 | 0.825
318.15 K | 920.2 kg/m3 | – | – | 0.767
323.15 K | 913.7 kg/m3 and 915.2 kg/m3 | 1.3949 | 1181.7 | 0.718
328.15 K | 910.1 kg/m3 | – | – | 0.674
333.15 K | 903.6 kg/m3 and 905 kg/m3 | 1.3905 | 1143.4 | 0.633
338.15 K | 899.9 kg/m3 | – | – | 0.599
343.15 K | 894.8 kg/m3 and 893.4 kg/m3 | 1.38623 | 1105.8 | 0.566
348.15 K | 889.7 kg/m3 | – | – | 0.537
353.15 K | 884.6 kg/m3 | 1.38178 | – | 0.505
358.15 K | 879.4 kg/m3 | – | – | 0.486
363.15 K | 874.2 kg/m3 | – | – | 0.464
368.15 K | 869 kg/m3 | – | – | 0.444
373.15 K | 863.8 kg/m3 | – | – | 0.441

COCCOCCO [2-(2-methoxyethoxy)ethanol]
Conditions | mass density, [1] | refractive index, [2] | speed of sound, [1] [m/s] | viscosity, [1] [mPa·s]
283.15 K | 1028.6 kg/m3 | 1.42914 | 1467.7 | –
288.15 K | 1025.3 kg/m3 and 1024.2 kg/m3 | 1.42723 | 1450.2 | 4.514
293.15 K | 1021 kg/m3 and 1019.8 kg/m3 | 1.42498 | 1432.7 | 3.963
298.15 K | 1015.4 kg/m3 and 1016.3 kg/m3 | 1.4239 | 1415.4 | 3.403
303.15 K | 1011 kg/m3 and 1011.9 kg/m3 | 1.42174 | 1398.1 | 3
308.15 K | 1006.6 kg/m3 and 1007.4 kg/m3 | – | 1380.9 | 2.666
313.15 K | 1002.1 kg/m3 and 1003 kg/m3 | 1.41733 | 1363.9 | 2.373
318.15 K | 998.8 kg/m3 | – | – | 2.148
323.15 K | 993.2 kg/m3 and 994.3 kg/m3 | 1.41368 | 1329.7 | 1.946
328.15 K | 989.8 kg/m3 | – | – | 1.772
333.15 K | 984.1 kg/m3 and 985.3 kg/m3 | 1.4101 | 1296.1 | 1.606
338.15 K | 981 kg/m3 | – | – | 1.489
343.15 K | 976.5 kg/m3 and 975 kg/m3 | 1.40635 | 1262.7 | 1.372
348.15 K | 971.8 kg/m3 | – | – | 1.268
353.15 K | 967.2 kg/m3 | 1.40241 | – | 1.155
358.15 K | 962.5 kg/m3 | – | – | 1.094
363.15 K | 957.9 kg/m3 | – | – | 1.019
368.15 K | 953.1 kg/m3 | – | – | 0.95
373.15 K | 948.5 kg/m3 | – | – | 0.877
